Data on 39 compounds can be found in EP0600950B1, “AMIDE TETRAZOLE ACAT INHIBITORS” (priority 1991, dated 1993).

The test has as its target acyl-CoA: cholesterol acyltransferase (ACAT). Put plainly: in vitro ACAT inhibition, rabbit intestinal microsomes (IAI). Format: biochemical. The following applies: radiolabeled cholesterol oleate formed from radiolabeled oleic acid. From the text: The test assesses the ability of a test compound to inhibit the acylation of cholesterol by oleic acid by measuring the amount of radiolabeled cholesterol oleate formed from radiolabeled oleic acid in a tissue preparation containing rabbit intestinal microsomes (designated IAI) or from rat liver microsomes (designated LAI).
Consider `CCCCCCCCCCCCn1nnc(C(C(=O)Nc2c(OC)cc(OC)cc2OC)c2ccc(-c3ccccc3)cc2)n1` (racemic) [Example 54, (±)-α-([1,1'-biphenyl]-4-yl)-2-dodecyl-N-(2,4,6-trimethoxy-phenyl)-2H-tetrazole-5-acetamide], for which the IC50 is 220 nM.

The compound `CCCCCCCCCCCCn1nnc(C2(C(=O)Nc3c(OC)cc(OC)cc3OC)CCCC2)n1` [Example 29, 1-(2-Dodecyl-2H-tetrazol-5-yl)-N-(2,4,6-trimethoxyphenyl)cyclopentanecarboxamide] displayed an IC50 of 10 nM.

`CCCCCCCCCCCCn1nnnc1CC(=O)Nc1c(C(C)C)cccc1C(C)C` [Example 2, N-[2,6-Bis(1-methylethyl)phenyl]-1-dodecyl-1H-tetrazole-5-acetamide] had a half-inhibitory concentration (IC50) of 92 nM.

`CCCCCCCCCCCCn1nnc(C(C(=O)Nc2c(C)ccc[n+]2[O-])c2ccccc2)n1` (racemic) [Example 24, (±)-2-Dodecyl-N-(3-methyl-2-pyridinyl)-2-phenyl-2H-tetrazole-5-acetamide, N-oxide] yielded an IC50 of 41 nM.

The compound `CCCCCCCCCCCCn1nnnc1C(C(=O)Nc1c(C(C)C)cccc1C(C)C)c1ccccc1` (racemic) [Example 26, (±)-N-[2,6-Bis(1-methylethyl)phenyl]-1-dodecyl-α-phenyl-1H-tetrazole-5-acetamide] had an IC50 of 79 nM.

With `CCCCCCCCCCCCn1nnc(C(C(=O)Nc2ncccc2C)c2ccccc2)n1` (racemic) [Example 23, (±)-2-dodecyl-N-(3-methyl-2-pyridinyl)-α-phenyl-2H-tetrazole-5-acetamide], the IC50 is 7.5 nM.

For `CCCCCCCCCCCCn1nnc(C(Cc2ccccc2)C(=O)Nc2c(OC)cc(OC)cc2OC)n1` (racemic) [Example 59, (±)-2-Dodecyl-α-(phenylmethyl)-N-(2,4,6-trimethoxyphenyl)-2H-tetrazole-5-acetamide], the IC50 amounted to 49 nM.

Compound `CCCCCCCCCCCCn1nnc(C(C(=O)Nc2c(C)nn(C)c2C)c2ccccc2)n1` (racemic) [Example 19, (±)-2-dodecyl-α-phenyl-N-(1,3,5-trimethyl-1H-pyrazol-4-yl)-2H-tetrazole-5-acetamide] showed a 50% inhibitory concentration (IC50) of 14 nM.

Compound `CCCCCCCCCCCCn1nnc(C(C(=O)Nc2cnc3c(C)cc(C)cc3c2-c2ccccc2Cl)c2ccccc2)n1` (racemic) [Example 18, (±)-N-[4-(2-chlorophenyl)-6,8-dimethyl-3-quinolinyl]-2-dodecyl-α-phenyl-2H-tetrazole-5-acetamide] registered a 50% inhibitory concentration (IC50) of 28 nM.

Turning to `CCCCCCCCCCCCn1nnnc1CCC(=O)Nc1c(OC)cc(OC)cc1OC` [Example 37, 1-Dodecyl-N-(2,4,6-trimethoxyphenyl)-1H-tetrazole-5-propanamide], inhibition was half-maximal at 210 nM (IC50).

`CCCCCCCCCCCCCCCCn1nnc(C(C(=O)Nc2c(OC)cc(OC)cc2OC)c2ccccc2)n1` (racemic) [Example 32, (±) 2-Hexadecyl-α-phenyl-N-(2,4,6-trimethoxyphenyl)-2H-tetrazole-5-acetamide] displayed an IC50 of 53 nM.

For `CCCCCCCCCCCCn1nnc(C(C(=O)Nc2ccccn2)c2ccccc2)n1` (racemic) [Example 22, (±)-2-dodecyl-α-phenyl-N-2-pyridinyl-2H-tetrazole-5-acetamide], the IC50 was 91 nM.

In turn, `CCCCCCCCCCCCn1nnc(C(C(=O)Nc2c(OC)ncnc2OC)c2ccccc2)n1` (racemic) [Example 16, (±)-N-(4,6-dimethoxy-5-pyrimidinyl)-2-dodecyl-α-phenyl-2H-tetrazole-5-acetamide] had a concentration for half-maximal inhibition (IC50) of 8 nM.

On to `CCCCCCCCCCCCCCn1nnnc1CC(=O)Nc1c(OC)cc(OC)cc1OC` [Example 50, 1-tetradecyl-N-(2,4,6-tri-methoxyphenyl)-1H-tetrazole-5-acetamide], for which the IC50 came out at 1000 nM.

In the case of `CCCCCCCCCCCCn1nnc(C(C(=O)Nc2c(OC)cc(OC)cc2OC)c2ccccc2)n1` (racemic) [Example 13, (±) 2-Dodecyl-α-phenyl-N-(2,4,6-trimethoxyphenyl)-2H-tetrazole-5-acetamide], 9 nM corresponded to half-maximal inhibition (IC50).

`CCCCCCCCCCCCn1nnc(CC(=O)Nc2c(C)nn(C)c2C)n1` [Example 11, 2-dodecyl-N-(1,3,5-trimethyl-1H-pyrazol-4-yl)-2H-tetrazole-5-acetamide] came in with a 50% inhibitory concentration (IC50) of 17 nM.

Turning to `CCCCCCCCCCCCCCn1nnc(CCC(=O)Nc2c(OC)cc(OC)cc2OC)n1` [Example 47, 2-tetradecyl-N-(2,4,6-tri-methoxyphenyl)-2H-tetrazole-5-propanamide], the IC50 was 2100 nM.

With `CCCCCCCCCCCCn1nnc(C(C)(C)C(=O)Nc2c(OC)cc(OC)cc2OC)n1` [Example 27, 2-Dodecyl-α,α-dimethyl-N-(2,4,6-trimethoxyphenyl)-2H-tetrazole-5-acetamide], the IC50 was determined as 14 nM.

`CCCCCCCCn1nnc(C(C(=O)Nc2c(OC)cc(OC)cc2OC)c2ccccc2)n1` (racemic) [Example 31, (±)-2-Octyl-α-phenyl-N-(2,4,6-trimethoxyphenyl)-2H-tetrazole-5-acetamide] yielded a concentration for half-maximal inhibition (IC50) of 270 nM.

Compound `CCCCCCCCCCCCCn1nnc(C(C)(C)C(=O)Nc2c(OC)cc(OC)cc2OC)n1` [Example 33, 2-Tridecyl-α,α-dimethyl-N-(2,4,6-trimethoxyphenyl)-2H-tetrazole-5-acetamide] registered an IC50 of 17 nM.

`CCCCCCCCCCCCn1nnc(CC(=O)Nc2ncccc2C)n1` [Example 7, 2-dodecyl-N-(3-methyl-2-pyridinyl)-2H-tetrazole-5-acetamide] showed an IC50 of 28 nM.

Regarding `CCCCCCCCCCCCn1nnc(CC(=O)Nc2c(OC)ncnc2OC)n1` [Example 3, N-(4,6-dimethoxy-5-pyrimidinyl)-2-dodecyl-2H-tetra-zole-5-acetamide], the half-maximal inhibitory concentration (IC50) amounted to 7 nM.

On to `CCCCCCCCCCCCn1nnc(CCC(=O)Nc2c(C(C)C)cccc2C(C)C)n1` [Example 35, N-(2,6-Bis(1-methylethyl)phenyl)-2-dodecyl-2H-tetrazole-5-propanamide], for which 9 nM corresponded to half-maximal inhibition (IC50).

Turning to `CCCCCCCCCCCCn1nnc(C(C)(C(=O)Nc2c(OC)cc(OC)cc2OC)c2ccccc2)n1` (racemic) [Example 44, (±)-2-Dodecyl-α-methyl-α-phenyl-N-(2,4,6-trimethoxyphenyl)-2H-tetrazole-5-acetamide], the half-inhibitory concentration (IC50) was found to be 29 nM.

On to `C=CCC(CC=C)(C(=O)Nc1c(OC)cc(OC)cc1OC)c1nnn(CCCCCCCCCCCC)n1` [Example 28, 2-Dodecyl-α,α'-(2-propenyl)-N-(2,4,6-trimethoxyphenyl)-2H-tetrazole-5-acetamide], for which it took 18 nM to reach half-maximal inhibition (IC50).

Take `CCCCCCCCCCCCn1nnc(C(C(=O)NC(C)(C)C)c2ccccc2)n1` (racemic) [Example 30, (±) N-(1,1-dimethylethyl)-2-dodecyl-α-phenyl-2H-tetrazole-5-acetamide]: the IC50 was found to be 770 nM.

The compound `CCCCCCCCCCCCn1nnc(C(C(=O)Nc2c(OC)cc(OC)cc2OC)c2ccccc2)n1` (single isomer, unassigned; (+)) [Example 62, (+)-2-Dodecyl-α-phenyl-N-(2,4,6-trimethoxy-phenyl)-2H-tetrazole-5-acetamide] showed an IC50 of 14 nM.

The compound `CCCCCCCCCCCCn1nnnc1CC(=O)Nc1c(OC)cc(OC)cc1OC` [Example 6, 1-dodecyl-N-(2,4,6-trimethoxyphenyl)-1H-tetrazole-5-acetamide] gave a half-maximal inhibitory concentration (IC50) of 120 nM.

In turn, `CCCCCCCCCCCCn1nnc(C(C(=O)Nc2c(OC)cc(OC)cc2OC)c2ccccc2)n1` (single isomer, unassigned; (-)) [Example 61, (-)-2-Dodecyl-α-phenyl-N-(2,4,6-trimethoxy-phenyl)-2H-tetrazole-5-acetamide] showed an IC50 of 310 nM.

As for `CCCCCCCCCCCCn1nnc(C(C(=O)Nc2c(C(C)C)cccc2C(C)C)(c2ccccc2)c2ccccc2)n1` [Example 46, N-[2,6-Bis(1-methylethyl)phenyl]-2-dodecyl-α,α-diphenyl-2H-tetrazole-5-acetamide], the 50% inhibitory concentration (IC50) is 11000 nM.

The compound `CCCCCCCCCCCCn1nnc(CC(=O)Nc2c(OC)cc(OC)cc2OC)n1` [Example 5, 2-dodecyl-N-(2,4,6-trimethoxyphenyl)-2H-tetrazole-5-acetamide] came in with an IC50 of 10 nM.

On to `CCCCCCCCCCCCn1nnc(C(C(=O)Nc2c(OC)cc(OC)cc2OC)c2ccc(N(C)C)cc2)n1` (racemic) [Example 51, (±)-α-[4-dimethylamino)phenyl]-2-dodecyl-N-(2,4,6-trimethoxy-phenyl)-2H-tetrazole-5-acetamide], for which the IC50 was 660 nM.

Consider `CCCCCCCCCCCCn1nnc(C(C(=O)Nc2ccc3c(C)cc(C)nc3n2)c2ccccc2)n1` (racemic) [Example 17, (±)-N-(5,7-dimethyl-1,8-naphthyridine-2-yl)-2-dodecyl-α-phenyl-2H-tetrazole-5-acetamide], for which inhibition was half-maximal at 190 nM (IC50).

`CCCCCCCCCCCCn1nnc(C(C(=O)Nc2c(C(C)C)cccc2C(C)C)c2ccccn2)n1` (racemic) [Example 55, (±)-N-[2,6-Bis(1-methylethyl)phenyl]-2-dodecyl-α-2-pyridinyl-2H-tetrazole-5-acetamide] showed an IC50 of 26 nM.

`CCCCCCCCCCCCn1nnc(CCC(=O)Nc2ccc(F)cc2F)n1` [Example 36, N-(2,4-Difluorophenyl)-2-dodecyl-2H-tetrazole-5-propanamide] showed a half-maximal inhibitory concentration (IC50) above 5000 nM.

`CCCCCCCCCCCCn1nnc(CCC(=O)Nc2c(OC)cc(OC)cc2OC)n1` [Example 34, 2-Dodecyl-N-(2,4,6-trimethoxyphenyl)-2H-tetrazole-5-propanamide] gave a 50% inhibitory concentration (IC50) of 69 nM.

With `CCCCCCCCCCCCn1nnc(C(C)C(=O)Nc2c(OC)cc(OC)cc2OC)n1` (racemic) [Example 58, (±)-2-Dodecyl-α-(methyl)-N-(2,4,6-trimethoxy-phenyl)-2H-tetrazole-5-acetamide], the midpoint of inhibition, the IC50, lay at 31 nM.

The compound `CCCCCCCCCCCCCCn1nnc(CC(=O)Nc2c(OC)cc(OC)cc2OC)n1` [Example 49, 2-tetradecyl-N-(2,4,6-tri-methoxyphenyl)-2H-tetrazole-5-acetamide] displayed an IC50 of 15 nM.

As for `CCCCCCCCCCCCn1nnc(C(C(=O)Nc2ccc(F)cc2F)c2ccccc2)n1` (racemic) [Example 21, (±)-N-(2,4-difluoro-phenyl)-2-dodecyl-α-phenyl-2H-tetrazole-5-acetamide], half-maximal inhibition (IC50) required 15 nM.
